Read-outs that look alike come from different tables or passages of the source.
Columns and labels:
MCF7 cells [1] = test: cell viability assay, control and EGR1-silenced MCF7; type: cell-based, human
[2] = tested on: metastases-derived organoids from patients with HR+ BC; test: organoid viability assay; type: cell-based, human; conditions: TMX with STS medium
[3] = tested on: ER transcriptional activity; test: ER luciferase reporter assay and ER target gene expression; type: cell-based, human; conditions: HR+ BC cell lines, TFF1, PGR, GREB1 expression
MCF7 cells [4] = test: gene expression microarrays and GSEA in MCF7; type: cell-based, human; conditions: 5 μM TMX combined with STS
HR+/HER2− BC cell lines = conditions: cited from earlier work
[5] = tested on: EGR1, PTEN and 4E-BP1 levels in MCF7 cells; test: immunoblotting of EGR1, PTEN and 4E-BP1 in MCF7; type: cell-based, human; conditions: supplementation
Method: For protein lysate generation from cultured cells, 5×10^4 MCF7, T47D or ZR-75-1 cells were plated in 6-well plates in CTR medium. After 24 h medium was removed, cells were washed with PBS and incubated either in CTR or STS medium. […] Where indicated, cells were supplemented with insulin ([…]), IGF1 (5 ng/ml), leptin ([…]), or 17β-estradiol (100 nM). 24 h later, cells were washed and protein lysates were generated as described elsewhere^34,35. Protein lysates from primary tumors or mouse uteri were obtained using TissueRuptor (Quiagen). Proteins (35 μg) were separated by SDS-PAGE, transferred to a PVDF membrane (Immobilon-P, Millipore S.p.A.), and detected with the following antibodies: anti-phospho-AKT (Ser473; #4058), anti-AKT (#9272), anti-PTEN (#9552), anti-phospho-p70S6kinase (Thr389; #9206), anti-p70S6kinase (#9202), anti-4E-BP1 (#4923), anti-phospho-eIF4E ([…]; #9741), anti-phospho-RB (Ser807/811; #9308), anti-RB (#9309), anti-CCND1 (#2978) were all from Cell Signaling Technology; anti-phospho-AMPK (Thr172; PA5-2 17831), anti-AMPK (PA5-29679), anti-EGR1 (MA5-15008) were from Thermo Fisher; anti-β-actin was from Santa Cruz Biotechnology. Band intensities were quantified by Quantity One SW software (Bio-Rad Laboratories, Inc.) using standard enhanced chemiluminescence.

For AZD5363, the “protection of EGR1-silenced BC cells from combined ET and STS” value (MCF7 cells [1]) was “abolished such protection”.

With `CC/C(=C(\c1ccccc1)c1ccc(OCCN(C)C)cc1)c1ccccc1` [TMX, tamoxifen] the “antitumor activity under STS” value [2] was “increased the antitumor activity”, the “ER inhibition under STS” value [3] was “enhanced” and the “cell cycle-related gene categories (GSEA)” value (MCF7 cells [4]) was “downregulation”. For the same compound, the “antitumor activity under STS (low-serum, low-glucose)” value (HR+/HER2− BC cell lines) was “increased the antitumor activity”.

For `C[C@]12CC[C@@H]3c4ccc(O)cc4C[C@@H](CCCCCCCCC[S+]([O-])CCCC(F)(F)C(F)(F)F)[C@H]3[C@@H]1CC[C@@H]2O` (stereo partly drawn) [FULV, fulvestrant], the “ER inhibition under STS” value [3] is given as “enhanced” and the “antitumor activity under STS (low-serum, low-glucose)” value (HR+/HER2− BC cell lines) is given as “increased the antitumor activity”.

For `CC(C)NC[C@@H](C(=O)N1CCN(c2ncnc3c2[C@H](C)C[C@H]3O)CC1)c1ccc(Cl)cc1` [GDC0068], the “protection of EGR1-silenced BC cells from combined ET and STS” value (MCF7 cells [1]; GDC0068 1 μM, AZD5363 400 nM, LY294002 2 μM) was “abolished such protection”.

For `C[C@]12CC[C@@H]3c4ccc(O)cc4CC[C@H]3[C@@H]1CC[C@@H]2O` [17β-estradiol], the “increase in EGR1, PTEN and 4E-BP1 induced by the TMX-STS combination” value [5] was “prevented the increase in EGR1, PTEN and 4E-PBP1”.
